What was measured:
[1] = tested on: P. asymbiotica subsp. australis cells; assay: Cell aggregation (cross-linking) assay; format: cell-based, Photorhabdus asymbiotica subsp. australis; conditions: three independent measurements
Excerpt: Because of the aggregation of PHL by calixarenes and dendrimers during SPR and ITC experiments, we decided to compare tetravalent compounds at a higher level. We performed a series of in vitro aggregation assays to reveal their aggregation properties towards P. asymbiotica subsp. australis (Table 4, Fig. 5). Prior to each assay, we confirmed the absence of aggregates in two negative controls – bacterial cells in PBS buffer and in the presence of azide 1 as a monomer. With all chosen compounds, we observed bacterial aggregates of a variable size that confirmed that they are capable of interacting with a cell surface. This effect may be caused by interaction of the multivalent inhibitors with PHL or other receptors. The concentration of the first appearance of aggregates varied according to the nature of the ligand used. […] An unexpected observation was that calixarene 7 had the lowest aggregation potential. In contrast to other techniques (hemagglutination, SPR and ITC), where calixarenes 6 and 7 provided similar results, during cross-linking experiments calixarene 7 was four times worse than calixarene 6. At the same time, both tetrameric calixarenes 6 and 7 are in a 1,3-alternate conformation with the two-faced presentation of the fucopyranosyl epitopes on opposite regions probably occupying a similar spatial orientation. The only difference is the tert-Bu group on the upper rim in calixarene 6, which might contribute to nonpolar interactions with whole P. asymbiotica cells.
P. asymbiotica subsp. australis was inoculated from stock cells stored at −80 °C into a standard LB media and were grown in 30 °C under an orbital shaking overnight. Bacterial growth was tracked by measuring the optical density of the broth at 600 nm (OD600) using a spectrophotometer (Biochrom Ltd., BioPhotometer WGA CO 8000 Biowave). Cells were harvested when reaching an OD600 = 0.5. The culture was centrifuged at 4,300 g and room temperature for 2 minutes (Minispin, Eppendorf, Germany) and cells were then washed three times with PBS buffer. Cells were diluted in PBS to OD600 of 2.0 and kept in a fridge until performing the aggregation assay.
P. asymbiotica subsp. australis cells and fucosylated compounds in a concentration ranging from 50 mM to 3.125 mM were gently mixed in a 9:1 (v/v) ratio. The reaction mixtures were left at room temperature for 10 minutes. 5 µl of reaction mixture was then transferred onto a microscope slide and observed under a fluorescence microscope (OLYMPUS IX81 Microscope IX81F-3 with IX2-UCB-2 Controller and X-Cite 120PC Q; Olympus and Excelitas Technologies, Japan, resp. USA). As a negative control, bacterial cells with/without azide 1 as a monomer were used. Three independent measurements were performed.

PHL [2] = target: T1, PHL (Photorhabdus asymbiotica, UniProt C7BLE4); assay: SPR competitive inhibition of PHL binding to α-L-fucoside sensor chip; conditions: for IC50: 25 °C, three independent measurements; for β L-Fuc (affinity improvement factor): IC50,basic unit/(valency × IC50,ligand), basic unit L-Fuc; for PotencyL-Fuc: IC50 L-fucose / IC50 ligand; for β Azide1 (affinity improvement factor): basic unit azide 1
T1 sequence (C7BLE4 entry or part of it): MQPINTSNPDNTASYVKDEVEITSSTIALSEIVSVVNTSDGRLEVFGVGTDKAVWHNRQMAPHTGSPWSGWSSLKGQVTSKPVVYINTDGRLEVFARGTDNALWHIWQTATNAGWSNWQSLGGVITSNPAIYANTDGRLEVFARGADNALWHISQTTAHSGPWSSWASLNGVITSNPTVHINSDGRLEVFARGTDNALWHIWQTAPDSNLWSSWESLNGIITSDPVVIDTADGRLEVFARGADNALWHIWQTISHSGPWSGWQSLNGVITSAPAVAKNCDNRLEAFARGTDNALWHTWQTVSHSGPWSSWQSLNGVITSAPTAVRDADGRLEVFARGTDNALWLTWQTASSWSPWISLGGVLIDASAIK
Method: To analyse the competitive inhibition of PHL binding to a multivalent surface, the surface plasmon resonance (SPR) technique was employed. A sensor chip presenting α-L-fucopyranoside residues was treated with a constant concentration of PHL, while an increasing concentration of the ligands was used to determine IC50 (Table 2, Fig. 3). […] To assess the contribution of valency to the affinity increase, an affinity improvement factor β was calculated as the relationship IC50,basic unit/(valency × IC50,ligand)[30].
Surface plasmon resonance (SPR) experiments were performed on a BIAcore T200 instrument (GE Healthcare, UK) at 25 °C, using buffer A supplemented with 0.05% Tween 20 as a running buffer. α-L-fucoside was immobilized onto CM5 sensor chip (GE Healthcare, UK) covered with a carboxymethylated dextran matrix. The sensor chip surface was activated with N-ethyl-N-(3-dimethylaminopropyl)carbodiimide/N-hydroxysuccinimide solution and then coated with streptavidin using the manufacturer’s standard protocol using HBS buffer (10 mM HEPES, 150 mM NaCl, 0.05% Tween 20, pH 7. 5). Unreacted groups were blocked with 1 M ethanolamine-HCl, pH 8.5. Biotinylated carbohydrate (biotinilated monomeric probes, Lectinity, Russia) was injected onto particular measuring channel and pure biotin on blank channel at a flow rate of 5 μl/min.
SPR inhibition measurements were carried out on measuring channel with L-fucoside at a flow rate of 5 µl/min. PHL was diluted to a concentration of 20 μg/ml by the buffer A supplemented with 0.05% Tween 20, mixed 1:1 (v/v) with various concentrations of inhibitors (500–5 μM) in the same buffer and injected onto the sensor chip. The response of lectin bound to the sugar surface at equilibrium was plotted against the concentration of inhibitor in order to determine IC50 (concentration of inhibitor resulting in 50% inhibition of binding). As IC50 is not a constant and depends on the experimental set-up, a parameter called potency was used for characterization. The potency of a tested inhibitor is the ratio of IC50 of a chosen standard inhibitor (in this case L-fucose) and the inhibitor in question. Pure PHL lectin was used as a control (0% inhibition) and channel with pure biotin served as a blank. IC50 was determined from triplicates.

PHL [3] = target: T1, PHL; assay: Isothermal titration calorimetry of PHL with ligands; format: binding; conditions: for Kd / −TΔS / −ΔG / −ΔH / n (stoichiometry): ITC at 25 °C; for n (stoichiometry): two independent measurements; for Potency L-Fuc: KD L-fucose / KD ligand; for β L-Fuc (affinity improvement factor): KD,basic unit/(valency × KD,ligand), basic unit L-Fuc; for β Azide1 (affinity improvement factor): basic unit azide 1
Excerpt: The binding of PHL to different α-L-fucoside compounds was further characterized by isothermal titration calorimetry (ITC), enabling determination of the complete thermodynamic profile of the molecular interactions (Table 3, Fig. 4). […] Because of this, it was not possible to evaluate the data, despite the obvious interaction. The dendrimers also cross-linked/aggregated the protein as with calixarenes, however the curves provided clear outcomes with an affinity in the low micromolar range. The dissociation constants (KD) of all dendrimers correlate with their valency – the higher number of fucose, the more decreased KD. […] The stoichiometry value n corresponds to the number of terminal fucoses per ligand molecule. The n value decreases from 4 to 1 as the number of fucose units increases from 1 to 12 (Table 3).
PHL protein in buffer A was equilibrated at room temperature at least for 30 min before ITC measurement. All ITC experiments were performed using ITC200 calorimeter (Malvern Panalytical, UK) at 25 °C. Carbohydrate ligands dissolved in buffer A were used at different concentrations. Protein in the calorimeter cell (50 μM) was titrated by consecutive additions (2 μl) of the ligand (1.5–5 mM) in the syringe while stirring at 1000 rpm. Integrated heat effects were analysed by nonlinear regression using a single-site binding model and global fitting in Origin 7 software (Microcal Instruments)[37]. The thermodynamic parameters of synthesised inhibitors were determined from two independent measurements.

SMILES: C[C@@H]1O[C@@H](CCN=[N+]=[N-])[C@@H](O)[C@H](O)[C@@H]1O [Azide 1]
- The lowest concentration able to aggregate P. asymbiotica cells [1]: No visible aggregation in used concentrations
- IC50 (PHL [2]): 11.5 ± 1.4 µM
- β L-Fuc (affinity improvement factor) (PHL [2]): 32
- PotencyL-Fuc (PHL [2]): 32
- β Azide1 (affinity improvement factor) (PHL [2]): 1
- Kd (PHL [3]): 105 ± 9 µM
- −TΔS (PHL [3]): 4.83 ± 1.05 kcal/mol
- −ΔG (PHL [3]): 5.43 ± 0.478 kcal/mol
- −ΔH (PHL [3]): 10.3 ± 0.932 kcal/mol
- n (stoichiometry) (PHL [3]): 4.1 ± 0.3
- Potency L-Fuc (PHL [3]; ITC): 13
- β L-Fuc (affinity improvement factor) (PHL [3]; ITC): 13
- β Azide1 (affinity improvement factor) (PHL [3]; ITC): 1

SMILES: C[C@@H]1O[C@@H](CCn2cc(COCC(COCc3cn(CC[C@@H]4O[C@@H](C)[C@@H](O)[C@@H](O)[C@@H]4O)nn3)(COCc3cn(CC[C@@H]4O[C@@H](C)[C@@H](O)[C@@H](O)[C@@H]4O)nn3)COCc3cn(CC[C@@H]4O[C@@H](C)[C@@H](O)[C@@H](O)[C@@H]4O)nn3)nn2)[C@@H](O)[C@H](O)[C@@H]1O [Dendrimer 8]
- The lowest concentration able to aggregate P. asymbiotica cells [1]: 0.625 mM
- IC50 (PHL [2]): 0.188 ± 0.037 µM
- β L-Fuc (affinity improvement factor) (PHL [2]): 481
- PotencyL-Fuc (PHL [2]): 1,922
- β Azide1 (affinity improvement factor) (PHL [2]): approximately 15
- PotencyAzide1 (PHL [2]; relative to azide 1): 65
- Kd (PHL [3]): 36.9 ± 3.7 µM
- −TΔS (PHL [3]): 6.84 ± 0.765 kcal/mol
- −ΔG (PHL [3]): 6.05 ± 0.598 kcal/mol
- −ΔH (PHL [3]): 12.9 ± 0.454 kcal/mol
- n (stoichiometry) (PHL [3]): 3.0 ± 0.1
- Potency L-Fuc (PHL [3]; ITC): 38
- β L-Fuc (affinity improvement factor) (PHL [3]; ITC): 9
- β Azide1 (affinity improvement factor) (PHL [3]; ITC): 1
- PotencyAzide1 (PHL [3]; ITC, relative to azide 1): 3

Reference: article PMC6797808, “Fucosylated inhibitors of recently identified bangle lectin from Photorhabdus asymbiotica” (Scientific Reports, 2019)
